From ChEMBL document CHEMBL1127467, “Molecular modeling studies of some choline acetyltransferase inhibitors” (J Med Chem, 1994) come the findings set out here.

In the assay the target is T1, Choline O-acetyltransferase (Homo sapiens, UniProt P28329).
T1 sequence (P28329 whole entry): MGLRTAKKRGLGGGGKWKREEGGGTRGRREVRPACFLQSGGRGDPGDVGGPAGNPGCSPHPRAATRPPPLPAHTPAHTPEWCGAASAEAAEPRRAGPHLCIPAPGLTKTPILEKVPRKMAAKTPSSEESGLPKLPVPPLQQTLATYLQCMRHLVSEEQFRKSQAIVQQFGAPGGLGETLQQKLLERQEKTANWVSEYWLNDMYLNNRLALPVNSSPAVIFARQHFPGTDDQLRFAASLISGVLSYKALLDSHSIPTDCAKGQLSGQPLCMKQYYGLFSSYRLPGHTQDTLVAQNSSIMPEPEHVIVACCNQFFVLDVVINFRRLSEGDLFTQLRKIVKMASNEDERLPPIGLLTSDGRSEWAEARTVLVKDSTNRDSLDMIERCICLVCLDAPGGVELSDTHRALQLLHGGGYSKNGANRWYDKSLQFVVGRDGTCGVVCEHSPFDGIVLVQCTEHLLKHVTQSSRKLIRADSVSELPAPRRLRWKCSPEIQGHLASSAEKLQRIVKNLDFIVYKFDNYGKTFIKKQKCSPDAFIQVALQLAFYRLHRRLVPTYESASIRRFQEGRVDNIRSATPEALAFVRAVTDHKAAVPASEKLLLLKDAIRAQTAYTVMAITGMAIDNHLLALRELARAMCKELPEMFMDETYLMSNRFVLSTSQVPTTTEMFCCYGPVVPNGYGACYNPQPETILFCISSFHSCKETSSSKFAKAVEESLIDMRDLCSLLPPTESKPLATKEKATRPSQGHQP
The experiment in a line: Inhibition of Choline Acetyltransferase. As to conditions: read-out: I50.

A value given as a limit tells only on which side of the number the result lay.

On to `C[n+]1ccc(/C=C/c2cc3ccccc3c3ccccc23)cc1`, for which the IC50 is above 100 µM. In the case of `C[n+]1ccc(/C=C/c2cccc3ccccc23)cc1`, the IC50 was 0.4 µM.

Turning to `Cc1c[n+](C)ccc1/C=C/c1ccccc1`, the IC50 was found to be 5 µM. With `C[n+]1ccc(/C=C/c2ccccc2)cc1`, the IC50 worked out at 13.5 µM.

Consider `COc1ccc(/C=C/c2cc[n+](C)cc2)c2ccccc12`, for which the IC50 is above 100 µM. For the molecule `C[n+]1ccc(/C=C/c2cccc(Cl)c2)cc1`, the IC50 was 2.3 µM. As for `CCc1c[n+](C)ccc1/C=C/c1ccccc1`, the IC50 is 19 µM.

As for `C[n+]1ccc(/C=C/c2ccccc2)c2ccccc21`, the IC50 amounted to 3.5 µM. In the case of `C/C(=C\c1ccccc1)c1cc[n+](C)cc1` it was above 100 µM; in that of `C[n+]1ccc(/C=C/c2ccccc2Cl)cc1`, 28 µM. Turning to `C[n+]1ccc(/N=C/c2cccc3ccccc23)cc1`, the IC50 was above 100 µM.

For the molecule `Cc1c[n+](C)ccc1/C=C/c1cccc2ccccc12`, the IC50 was found to be 0.4 µM.

As for `C[n+]1ccc(/C=N/c2cccc3ccccc23)cc1`, the IC50 came out at 1.5 µM.
